System: sodium channel response in hTRPV1-N1E115 cells
Experiment: FLIPR membrane potential assay of sodium channel response in hTRPV1-N1E115 cells with or without heat (47° C.) activation
Assay type: cell-based
Settings: for hTRPV1-N1E Nav 0.1 mM (% inhibition) 25° C. / hTRPV1-N1E Nav 1 mM (% inhibition) 25° C.: 25° C. (no heat activation); for hTRPV1-N1E Nav 0.1 mM (% inhibition) 47° C. / hTRPV1-N1E Nav 1 mM (% inhibition) 47° C.: 47° C. (heat activated); for IC50: 47° C., read-out: hTRPV1-N1E IC50 (μM) 47° C.
From the text: In one embodiment, a modified FLIPR® (Fluorometric Imaging Plate Reader) based assay system was developed which is capable of discriminating between non-specific versus hTRPV1-mediated entry of test compounds. Advantageously, the assay system utilizes heat activated opening of hTRPV1 channels followed by an assessment of internal sodium channel block. The assay allows a permanently charged compound to selectively enter through opened hTRPV1 channels and that compound's potency in inhibiting sodium channels from the cytoplasm side of the same cell can be assessed and quantified.
The test compounds are diluted in the Assay Buffer and added to each well of a specific 384-well ‘compound plate’, which serves as a source plate for compound addition using the FLIPR® platform. The concentration of compounds in the compound-plate was adjusted to achieve the desired final concentration when added to the cells in the ‘cell-plate’. After completion of the dye incubation period, the dye loaded cell-plates and the compound source plates are inserted into the FLIPR® Tetra device with a 384 FLIPR® tip box (Molecular Devices, Inc.) according to manufacturer's instructions. The compounds are robotically added to the dye loaded cell-plates using software integral to the FLIPR® Tetra instrument.
Immediately following compound addition, hTRPV1 is activated, in one of the duplicate cell plates, by heating. Specifically, entire multi-well plate containing the compound-cells mixture is incubated at 47° C. for 10 minutes, after which they are returned to room temperature (about 25° C.) for a further 30 minutes. Heat activation of hTRPV1 was omitted from the replicate cell plate which was simply maintained at room temperature for the entire 40 minutes.
A membrane potential response is elicited in the dye- and compound-loaded cells by the addition of veratridine which is a known sodium channel ‘agonist’. As illustrated in an example herein, an agonist plate containing veratridine (Sigma) is prepared in advance and is inserted into suitable devices such as, e.g., the FLIPR® TETRA device for a “2nd addition” as instructed by the manufacturer. The concentration of veratridine in the ‘agonist plate’ was adjusted to achieve a final concentration of 100 μM when added to the cells in the cell-plate. Final concentrations of veratridine greater or lesser than 100 μM may also be used but the signal measured by the FLIPR® TETRA device or another suitable device may vary accordingly.
The exposure of the cells in the cell-plate to veratridine induces sodium channels in the cells to open and the resulting ion flux produces a membrane potential depolarization that is detected as a fluorescence signal by the FLIPR® Tetra Device. The activity of test compounds is determined by their ability to attenuate the veratridine-induced fluorescence signal, the most promising compounds are those that show an enhanced activity in the heat-activated cell plate over the non-heat-activated cell plate. This differential activity reflects enhanced compound uptake via the heat activated and open hTRPV1 channels and rests on the fact that sodium channel block requires test compounds to act from the cytoplasmic side of the cell membrane.
In vitro assays were developed for assessing the inhibition of sodium channel response with compounds following stimulation by heat (47° C.) in cells expressing hTRPV1.
(v) Membrane potential Assay to Assess Sodium Channel Function in hTRPV1-Expressing Cells • Cells were plated at 5000 per 50 μL [DMEM+10% FBS+300 μg/mL H\hygromycin] per well, in a 384 clear bottom poly-D-lysine coated plate and incubated at 37° C. and 5% CO2 for 48 hours. On the day of the assay, media were discarded gently and 30 μL of the dye [FMP blue dye was prepared in assay buffer] per well was added and dye-loading was allowed to proceed for 20 min at room temperature. […]

Row | SMILES | IC50 | hTRPV1-N1E Nav 0.1 mM (% inhibition) 25° C. | hTRPV1-N1E Nav 0.1 mM (% inhibition) 47° C. | hTRPV1-N1E Nav 1 mM (% inhibition) 25° C. | hTRPV1-N1E Nav 1 mM (% inhibition) 47° C.
1 | CC(C[N+](C)(C)C1CCCCC1)OC(=O)c1cccs1.[I-] (centres unmarked) [Example 32, N,N-Dimethyl-N-[2-((thiophene-2-carbonyl)oxy)propyl] cyclohexanaminium iodide] |  | 4 (N = 4) % | 48 (N = 4) % | 1 (N = 4) % | 54 (N = 4) %
2 | CC(C[N+](C)(C)C1CCCCC1)OC(=O)c1ccccc1Cl.[I-] (centres unmarked) [Example 9, N-[2-((2-Chlorobenzoyl)oxy)propyl]-N,N-dimethyl-cyclohexanaminium iodide] |  | 16 (N = 4) % | 67 (N = 4) % |  | 
3 | Cc1cc(C)c(C(=O)OC(C)C[N+](C)(C)C2CCOCC2)c(C)c1.[I-] (centres unmarked) [Example 28, N,N-Dimethyl-N-[2-((2,4,6-trimethylbenzoyl)oxy)propyl]tetrahydro-2H-pyran-4-aminium iodide] |  | 0 (N = 4) % | 32 (N = 4) % | 5 (N = 4) % | 58 (N = 4) %
4 | CC(C[N+](C)(C)C1CCCCC1)OC(=O)c1cc2ccccc2s1.[I-] (centres unmarked) [Example 35, N-[2-((Benzo[b]thiophene-2-carbonyl)oxy)propyl]-N,N-dimethyl-cyclohexanaminium iodide] | 10 to 100 µM | 35 (N = 4) % | 74 (N = 4) % |  | 
5 | COc1cccc(OC)c1C(=O)OC(C)C[N+](C)(C)C1CCCCC1.[I-] (centres unmarked) [Example 7, N-[2-((2,6-Dimethoxybenzoyl)oxy)propyl]-N,N-dimethyl-cyclohexanaminium iodide] |  | 1 (N = 4) % | 28 (N = 4) % | 0 (N = 4) % | 70 (N = 4) %
6 | CC(C[N+](C)(C)C1CCCCC1)OC(=O)c1ccccc1[N+](=O)[O-].[I-] (centres unmarked) [Example 18, N,N-Dimethyl-N-[2-((2-nitrobenzoyl)oxy)propyl] cyclohexanaminium iodide] |  | 3 (N = 4) % | 41 (N = 4) % | 28 (N = 4) % | 66 (N = 4) %
7 | CC(C)(C)c1ccc(C(=O)OCC[N+](C)(C)C2CCCCC2)cc1.[I-] [Example 43, N-[2-((4-(tert-butyl)benzoyl)oxy)ethyl]-N,N-dimethylcyclo-hexanaminium iodide] | 10 to 100 µM | 13 (N = 4) % | 78 (N = 4) % |  | 
8 | CC(C[N+](C)(C)C1CCCCC1)OC(=O)c1ccccc1C(F)(F)F.[I-] (centres unmarked) [Example 17, N-[2-((2-(Trifluoromethyl)benzoyl)oxy)propyl]-N,N-dimethylcyclo-hexanaminium iodide] | 100 to 1000 µM | 4 (N = 4) % | 54 (N = 4) % | 72 (N = 4) % | 96 (N = 4) %
9 | Cc1ccc(C(=O)OC(C)C[N+](C)(C)C2CCCCC2)cc1.[I-] (centres unmarked) [Example 42, N,N-Dimethyl-N-[2-((4-methylbenzoyl)oxy)propyl] cyclohexanaminium iodide] | 10 to 100 µM | 8 (N = 4) % | 45 (N = 4) % | 16 (N = 4) % | 90 (N = 4) %
10 | CCc1ccc(C(=O)OC(C)C[N+](C)(C)C2CCCCC2)cc1.[I-] (centres unmarked) [Example 20, N-[2-((4-Ethylbenzoyl)oxy)propyl]-N,N-dimethyl-cyclohexanaminium iodide] | 10 to 100 µM | 14 (N = 4) % | 77 (N = 4) % | 46 (N = 4) % | 95 (N = 4) %
11 | CC(C[N+](C)(C)C1CCCCC1)OC(=O)c1cccc(F)c1.[I-] (centres unmarked) [Example 14, N-[2-((3-Fluorobenzoyl)oxy)propyl]-N,N-dimethyl-cyclohexanaminium iodide] |  | 0 (N = 4) % | 31 (N = 4) % | 10 (N = 4) % | 66 (N = 4) %

Further lines, with some results ahead:

Row | IC50 | SMILES | hTRPV1-N1E Nav 0.1 mM (% inhibition) 25° C. | hTRPV1-N1E Nav 0.1 mM (% inhibition) 47° C. | hTRPV1-N1E Nav 1 mM (% inhibition) 25° C. | hTRPV1-N1E Nav 1 mM (% inhibition) 47° C.
12 | 10 to 100 µM | CC(C[N+](C)(C)C1CCCCC1)OC(=O)c1cccc(C(C)C)c1.[I-] (centres unmarked) [Example 26, N-[2-((3-Isopropylbenzoyl)oxy)propyl]-N,N-dimethylcyclo-hexanaminium iodide] | 4 (N = 4) % | 88 (N = 4) % | 57 (N = 4) % | 89 (N = 4) %
13 | 10 to 100 µM | CC(C[N+](C)(C)C1CCCCC1)OC(=O)c1ccc(Cl)cc1.[I-] (centres unmarked) [Example 13, N-[2-((4-Chlorobenzoyl)oxy)propyl]-N,N-dimethyl-cyclohexanaminium iodide] | 0 (N = 4) % | 44 (N = 4) % | 51 (N = 4) % | 89 (N = 4) %
14 | 10 to 100 µM | CC(C[N+](C)(C)C1CCCCC1)OC(=O)c1cccc(Cl)c1Cl.[I-] (centres unmarked) [Example 29, N-[2-((2,3-Dichlorobenzoyl)oxy)propyl]-N,N-dimethyl-cyclohexanaminium iodide] | 36 (N = 4) % | 52 (N = 4) % | 50 (N = 4) % | 61 (N = 4) %
15 | 100 to 1000 µM | CC(C[N+](C)(C)C1CCCCC1)OC(=O)c1c(Cl)cccc1Cl.[I-] (centres unmarked) [Example 27, N-[2-((2,6-Dichlorobenzoyl)oxy)propyl]-N,N-dimethylcyclo-hexanaminium iodide] | 23 (N = 4) % | 73 (N = 4) % | 74 (N = 4) % | 85 (N = 4) %
16 | 10 to 100 µM | Cc1ccc(C(=O)OC(C)C[N+](C)(C)C2CCCCC2)c(C)c1.[I-] (centres unmarked) [Example 45, N-[2-((2,4-Dimethylbenzoyl)oxy)propyl]-N,N-dimethylcyclo-hexanaminium iodide] | 4 (N = 4) % | 72 (N = 4) % | 46 (N = 4) % | 83 (N = 4) %
17 | 100 to 1000 µM | Cc1ccccc1C(=O)OC(C)C[N+](C)(C)C1CCCCC1.[I-] (centres unmarked) [Example 11, N,N-Dimethyl-N-[2-((2-methylbenzoyl)oxy)propyl] cyclohexanaminium iodide] | 16 (N = 4) % | 40 (N = 4) % |  | 
